As a reminder, the Kd is the free concentration of one partner at which half of the binding sites on the other are occupied at equilibrium, for simple one-to-one binding. In general, IC50 refers to the concentration at which inhibition is half-maximal.

Where “and” joins values, the source holds several entries; their conditions need not be identical. Identical values can stand only once. Entries after “also recorded” stand apart in the source; their conditions may differ. Like-named read-outs stand apart in the source and are kept apart here.

The target in one experiment is T1, recombinant EWS-FLI1 (Homo sapiens, UniProt Q01543+Q01844).
T1 sequence (Q01543 1-452): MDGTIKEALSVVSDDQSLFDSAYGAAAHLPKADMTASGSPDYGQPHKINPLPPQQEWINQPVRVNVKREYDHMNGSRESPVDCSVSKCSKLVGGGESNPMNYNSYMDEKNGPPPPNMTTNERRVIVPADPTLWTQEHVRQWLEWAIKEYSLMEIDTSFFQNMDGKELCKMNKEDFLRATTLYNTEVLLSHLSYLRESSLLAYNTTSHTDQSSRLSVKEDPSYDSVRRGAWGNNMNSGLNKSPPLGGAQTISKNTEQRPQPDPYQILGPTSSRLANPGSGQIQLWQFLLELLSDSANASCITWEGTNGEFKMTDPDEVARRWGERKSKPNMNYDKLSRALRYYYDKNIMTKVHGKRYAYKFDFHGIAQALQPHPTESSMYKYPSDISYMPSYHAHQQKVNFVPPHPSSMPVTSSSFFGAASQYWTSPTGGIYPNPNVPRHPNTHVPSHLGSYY
T1 sequence (Q01844 1-656): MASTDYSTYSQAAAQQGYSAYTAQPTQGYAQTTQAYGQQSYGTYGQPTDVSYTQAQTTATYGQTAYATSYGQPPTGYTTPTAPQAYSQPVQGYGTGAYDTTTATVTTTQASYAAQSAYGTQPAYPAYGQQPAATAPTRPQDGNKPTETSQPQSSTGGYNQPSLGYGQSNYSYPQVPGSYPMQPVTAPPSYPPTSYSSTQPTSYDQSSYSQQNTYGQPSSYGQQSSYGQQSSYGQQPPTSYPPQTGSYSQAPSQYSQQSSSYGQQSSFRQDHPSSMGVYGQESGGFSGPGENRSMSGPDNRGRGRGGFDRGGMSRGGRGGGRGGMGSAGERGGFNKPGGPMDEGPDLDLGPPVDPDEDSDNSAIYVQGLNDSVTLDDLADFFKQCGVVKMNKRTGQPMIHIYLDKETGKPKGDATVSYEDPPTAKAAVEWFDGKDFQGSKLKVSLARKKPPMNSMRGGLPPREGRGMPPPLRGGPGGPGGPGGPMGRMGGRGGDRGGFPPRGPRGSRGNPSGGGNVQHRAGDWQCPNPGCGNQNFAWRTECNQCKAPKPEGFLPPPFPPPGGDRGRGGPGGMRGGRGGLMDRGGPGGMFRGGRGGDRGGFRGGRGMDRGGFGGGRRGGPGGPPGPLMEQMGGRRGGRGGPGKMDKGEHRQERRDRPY
As to the kind of experiment: Surface plasmon resonance (Biacore) binding to EWS-FLI1. Here is the method: Antp is conjugated to the amino terminal of all peptides used in these studies. Recombinant EWS-FLI1 (MW 55 kDa) was covalently linked to a CM5 chip at a density of 1200 RU, and E9RP (MW 4 kDa) was evaluated for binding. The E9RP analyte concentrations ranged from 0.03-30 μM, and all are shown in duplicate. E9RP bound to EWS-FLI1 with a KD of 4.0 μM.
An assay that will identify whether a peptide can disrupt RHA from interacting with EWS-FLI1 was developed. The Biacore device is a biosensor that utilizes surface plasmon resonance (SPR) to measure the strength of molecular interactions. SPR is the sensitive measurement of […] light based upon alterations of surface characteristics that change with molecules binding to a surface. The Biacore device combines SPR with a microfluidic system.
The KD of E9RP binding to EWS-FLI1 was calculated to be 4.0 μM (FIG. 4).
A surface plasmon resonance assay using the Biacore T100 was established with EWS-FLI1, prepared in our laboratory as previously published (Uren, A., Tcherkasskaya, O. & Toretsky, J. A. Recombinant EWS-FLI1 oncoprotein activates transcription. Biochemistry 43, 13579-13589 (2004)). DNA oligonucleotides were used to quality control the proper conformation of EWS-FLI1 on the surface of a CM5 chip. Small molecules obtained from the Developmental Therapeutics Program of the National Cancer Institute, NIH (http://dtp.nci.nih.gov/branches/dscb/repo_open.html) were prioritized based upon their molecular weight and solubility. An initial screening of molecules was performed at 1 or 10 μM compound, based on solubility. We used a model that compares the actual binding maximum (actual RU) with the theoretical binding maximum (RUtheor). […] Hits (RUactual to RUtheor of 0.7-2.0) were then reviewed by a team of medicinal chemists and those with structural potentials were selected for further study. Selected molecules were tested in vitro in a solution coimmunoprecipitation assay using recombinant EWS-FLI1 and GST-RHA (647-1075).
In general terms: In SPR one partner is held on a chip, and binding of the other changes the refractive index at the surface.

A further experiment deals with RHA binding to EWS-FLI1. Nature of the experiment: Solution immunoprecipitation of GST-RHA with recombinant EWS-FLI1. Further details: species or system human. The conditions noted are these: for binding of GST-RHA (647-1075) to full-length recombinant EWS-FLI1: cell-free assay. On the procedure: E9RP is the peptide region of RHA (E9R; SEQ ID NO: 29) fused to the Penetratin peptide (from the Antennapedia homeodomain; SEQ ID NO: 34). Immunoprecipitation of GST-RHA using recombinant EWS-FLI1 bound to a FLI1 antibody. […] E9RP is the sequence of aa 823-832 of human RHA that were synthesized.
(§1) In FIG. 13A, recombinant EWS-FLI1 was treated with NSC635437 for 30 minutes. GST-RHA (630-1020) was added and the complexes were then precipitated with antibody to EWS-FLI1 and Protein G beads. Resolved complexes showing the immunoprecipitated complex control without compound are in lanes 3 (0.1% DMSO) and 5 (0.01% DMSO). […] ESFT TC32 (◯) and neuroblastoma SK-N-AS (▪) were grown for 72 hours in the continuous presence of NSC635437. Cells were incubated in MTT reagent for 4 hours and the dried precipitate was dissolved isopropanol and the absorbance read at 570 nm. Each cell line was standardized to the growth of the DMSO control.
Protein lysates and immunoprecipitations were performed as previously published (Uren et al (2005)). Recombinant GST-RHA (647-1075) was prepared from crude bacterial extracts without further purification.
Reagents were developed to block RHA binding to EWS-FLI1 since RHA is necessary for optimal EWS-FLI1 activity. The E9R peptide corresponds to amino acids 823 to 832, located in the proximal HA2 region of RHA (FIG. 29A). A cell-free protein interaction assay was developed to test whether E9R peptide inhibits RHA binding to EWS-FLI1. […] It was determined whether disrupted EWS-FLI1/RHA binding inhibited cell growth.

For another experiment, the system named is TC32 cells. As to the kind of experiment: Monolayer cell growth (MTT or WST), TC32. Format: cell-based. The conditions noted are these: for IC50: Homo sapiens, TC-32, 168 h, seven days in culture, read-out: IC50, TC32 cells growing in monolayer. On the procedure:
as §1
FIG. 30 provides data to show E9R peptide prevents EWS-FLI1 binding to RHA with specific detrimental effects upon ESFT growth and transformation. […] Scale bar equals 20 μm. […] Only expression of EGFP-E9R in TC71 reduced anchorage independent growth. […] Scale bar equals 20 μm.
FIG. 33 provides data showing YK-4-279 is potent and specific inhibitor of ESFT. […] Cell number was measured by MTT or WST reduction after seven days in culture. […] FIG. 33D cell lines expressing EWS-FLI1 compared to non-EWS-FLI1 malignant cell lines following 3 days in culture to establish the IC50 using WST assay. […] Graph plots level of fluorescence in treated divided by untreated lysate. […] Scale bar equals 200 μm.

[1] abbreviates: FIG. 24 experiment, read-out: KD.
The mark [2] stands for this setting: SPR, EWS-FLI1 immobilized on CM5 chip, read-out: KD of binding to EWS-FLI1.

Regarding `O=C(CC1(O)C(=O)Nc2c(Cl)ccc(Cl)c21)c1ccc(Cl)cc1` (stereo not drawn) [NSC635437, 4,7-Dichloro-3-[2-(4-chlorophenyl)-2-oxoethyl]-3-hydroxyl-1,3-dihydro-2H-indol-2-one], the Kd at recombinant EWS-FLI1 (setting [1]) was 1210 nM and 2020 nM; on recombinant EWS-FLI1 (setting [2]) it was 2340 nM and 2000 nM. Moreover, the “RUactual:RUtheor” value at recombinant EWS-FLI1 (library screening, single concentration) turned out to be 0.9. In the experiment with RHA binding to EWS-FLI1 (10 μM), the “RHA binding to EWS-FLI1 in solution binding assay” value is “block the binding of RHA to EWS-FLI1”. Moreover, the “complex formation compared to DMSO matched controls” value in the experiment on RHA binding to EWS-FLI1 (10 μM and 1 μM, GST-RHA (630-1020)) was “decreased complex formation”. Besides, the “binding of GST-RHA (647-1075) to full-length recombinant EWS-FLI1” value in the experiment on RHA binding to EWS-FLI1 was “reduced the direct binding”. Besides, in the experiment with TC32 cells (72 hours continuous presence), the “cell growth (MTT)” value is reported as “specifically cytotoxic to ESFT cells; also recorded: reduces ESFT”. For the same compound, the IC50 in the experiment with TC32 cells was 20 µM.

Take `COc1ccc(C(=O)CC2(O)C(=O)Nc3c(Cl)ccc(Cl)c32)cc1` (stereo not drawn) [YK-4-279, 4,7-Dichloro-3-hydroxy-3-[2-(4-methoxyphenyl)-2-oxoethyl]-1,3-dihydro-2H-indol-2-one]: the Kd at recombinant EWS-FLI1 (setting [1]) was found to be 4560 nM; on recombinant EWS-FLI1 (setting [2]), 9480 nM. In the experiment on RHA binding to EWS-FLI1, the “binding of GST-RHA (647-1075) to full-length recombinant EWS-FLI1” value was “significantly reduced the protein-protein interaction”. For the same compound, the IC50 in the experiment with TC32 cells is 0.9 µM.
